In test [1] the test system is defecation number induced by restraint stress in rats. The test can be described thus: Increase of defecation number induced by restraint stress (animal model of irritable bowel syndrome). Type of test: in vivo. As to conditions: rat; for Effect on the defecation-suppressing action of the medicament of the present invention (combination of drugs): other drug given 1 hour, medicament 30 minutes before the restraint, FIG. 1; for Suppression of the increase of defecation number induced by the restraint (in words): over the doses of Table 3; for Suppressive action on stress-induced defecation at a high dose (in words): high dose (amitriptyline 100 mg/kg, diazepam 30 mg/kg). As to the method: Increase of defecation number induced by restraint stress has widely been used as a pathological model of irritable bowel syndrome (Miyata et al., J. Pharmacol. Exp. Ther., 261, pp.297-303, 1992). Therefore, pathological model animals of irritable bowel syndrome were prepared according to the method of Williams et al. (Williams et al., Gastroenterology, 94, pp.611-621, 1988) and used for evaluation of the effectiveness of the medicament of the present invention. The medicament of the present invention was administered to the rats, and after 1 hour, their forelegs were fixed on their trunks with adhesive tapes under ether anesthesia (load of restraint stress). One hour after the restraint, defecation number was counted and the number was compared with that of the control group. In the experiments using a combination of drugs, the medicament of the present invention was administered to the animals 30 minutes before the restraint, and the other drug was administered 1 hour before the restraint.

For test [2], the system named is defecation induced by forced swimming stress in rats. The note with it: rat; cited from earlier work.
Another test concerns animal model. As to conditions: cited from earlier work.
Test [3] concerns patients with irritable bowel syndrome. As to conditions: double-blind test; cited from earlier work.

Structures are written as SMILES. Entries after “also recorded” stand apart in the source; their conditions may differ. Marks after values point to notes of the source that are not given here.

Take `c1cnc(N2CCNCC2)nc1` [1-PP, 1-(2-pyrimidinyl)piperazine]: the “Effect on the defecation-suppressing action of the medicament of the present invention (combination of drugs)” value in test [1] is reported as “inhibited; also recorded: antagonized”.
For the compound `CCCN(CCC)C1CCc2cccc(O)c2C1` (stereo not shown) [8-OH-DPAT, 8-hydroxy-2-(di-n-propylamino)tetralin], the “Suppression rate of defecation number (%)” value (from here on “Suppression rate … (%)”) in test [1] (intraperitoneal, 0.03 mg/kg) is 25%; in test [1] (intraperitoneal, 0.1 mg/kg) it was 74* %; in test [1] (intraperitoneal, 0.3 mg/kg), 97* %. For the same compound, the “Suppression of the increase of defecation number induced by the restraint (in words)” value (“Suppression of the increase … (in words)” for short) in test [1] is on record as “the defecation due to the stress was suppressed”.
Take `CN(C)CCC=C1c2ccccc2CCc2ccccc21` [Amitriptyline, amitriptyline]: the “Suppression rate … (%)” value in test [1] (oral, 10 mg/kg) is given as 17%; in test [1] (oral, 30 mg/kg), 6%; in test [1] (oral, 100 mg/kg), 69* %. The “Suppressive action on stress-induced defecation at a high dose (in words)” value in test [1] (oral) is given as “exhibited significant suppressive actions”. The “Efficacy on stress-induced defecation at a lower dose (in words)” value in test [1] (oral) is on record as “no efficacy”.
As for `O=C1CC2(CCCC2)CC(=O)N1CCCCN1CCN(c2ncccn2)CC1` [Buspirone, buspirone], the “Suppression rate … (%)” value was 12% in test [1] (oral, 10 mg/kg); 12% in test [1] (oral, 30 mg/kg); 44% in test [1] (oral, 100 mg/kg). Also, the “Suppression of the increase … (in words)” value in test [1] is recorded as “failed to exhibit significant efficacy”. Further, the “Defecation suppressing activity, forced swimming stress” value in test [2] was “exhibited significant defecation suppressing activity”.
Regarding `c1ccc2c(c1)OC[C@H](CNCCCOc1ccc3c(c1)OCO3)O2` [Compound No. 1, 5-[3 [(2S)-(1,4-benzodioxan-2-ylmethyl)amino]propoxy]-1,3-benzo-dioxol], the “Suppression rate … (%)” value in test [1] (oral, 0.3 mg/kg) is recorded as 29%; in test [1] (oral, 1 mg/kg) it was 45* %; in test [1] (oral, 3 mg/kg), 81* %. In test [1], the “Suppression of the increase … (in words)” value is reported as “dose-dependently suppressed”. Also, the Anxiolytic activity entry in the test with animal model was “anxiolytic activity of the medicament of the present invention was observed”.
As for `CN1C(=O)CN=C(c2ccccc2)c2cc(Cl)ccc21` [Diazepam, diazepam], the “Suppression rate … (%)” value in test [1] (oral, 3 mg/kg) is listed as 26%; in test [1] (oral, 10 mg/kg), 36%; in test [1] (oral, 30 mg/kg) it was 77* %. In addition, in test [1] (oral), the “Suppressive action on stress-induced defecation at a high dose (in words)” value is reported as “exhibited significant suppressive actions”. For the same compound, the “Efficacy on stress-induced defecation at a lower dose (in words)” value in test [1] (oral) is “no efficacy”.
Consider `CNCCC(Oc1ccc(C(F)(F)F)cc1)c1ccccc1` (stereo not shown) [Fluoxetin], for which the “Suppression rate … (%)” value in test [1] (oral, 10 mg/kg) is on record as 24%; in test [1] (oral, 30 mg/kg), 15%; in test [1] (oral, 100 mg/kg), 26%.
As to `O=C1[C@@H]2[C@H]3CC[C@H](C3)[C@@H]2C(=O)N1CCCCN1CCN(c2ncccn2)CC1` [Tandospirone, tandospirone], the “Suppression rate … (%)” value stood at 8% in test [1] (oral, 30 mg/kg); 4% in test [1] (oral, 100 mg/kg); 44% in test [1] (oral, 300 mg/kg). The “Suppression of the increase … (in words)” value in test [1] is “failed to exhibit significant efficacy”. Besides, the “Therapeutic efficacy in irritable bowel syndrome compared with a placebo” value in test [3] was “failed to give a significant difference”.
Take `COc1ccccc1N1CCN(CC(C(=O)NC(C)(C)C)c2ccccc2)CC1` (stereo not shown) [WAY100135, N-tert-butyl-3-(4-(2-methoxyphenyl)piperazin-1-yl)-2-phenyl-propanamide]: the “Effect on the defecation-suppressing action of the medicament of the present invention (combination of drugs)” value in test [1] is “inhibited”.

The record behind these values is US6596759B2, “Medicament for treatment of irritable bowel syndrome” (Mitsubishi Chemical Corporation, priority 1997, dated 2003).
